Laboratory results published in patent US20040023961A1, “Aryl ureas with raf kinase and angiogenisis inhibiting activity” (BAYER CORPORATION, priority 2002, published 2004).

What was measured:
[1] = test system: neovascularization of the joint; conditions: rat collagen arthritis model; Peacock et al. 1992; cited from earlier work
[2] = target: Flk-1 (Mus musculus, UniProt P35918); assay: In Vitro Flk-1 ELISA Assay; type: biochemical, murine; conditions: poly-Glu-Tyr coated plates, 3.3 μM ATP
Protocol: In Vitro Flk-1 ELISA Assay
The Flk-1 ELISA assay was performed on 96-well Costar 9018 high-binding plates coated overnight with poly-Glu-Tyr (Sigma #P 0275). After coating, plates were washed with 20 mM HEPES pH=7.5, 150 mM NaCl, 0.1% Tween-20. These plates were then blocked with Blocking Buffer (20 mM HEPES pH=7.5, 150 mM NaCl, 1% BSA, 0.1% Tween-20) for 1 hr at room temperature on a plate shaker. After washing, the reaction was prepared using 20 mM HEPES pH=7.5, 100 mM KCl, 10 mM MgCl2, 3 mM MnCl2 0.05% glycerol, 0.005% Triton X-100, 1 mM BME and 3.3 μM ATP. The assay was initiated with Flk-1 giving a final enzyme concentration of 50 ng/well.
The reaction was incubated at room temperature for 1 hr on a plate shaker and was stopped by washing the plate. The primary antibody incubation step was for 1 hour at room temperature using PT66 phosphotyrosine antibody (Sigma 1:5000 dilution). After washing, the plate was then incubated (1 hr room temp) with the secondary antibody solution of anti-mouse HRP-conjugated antibody (Amersham 1:5000 dilution). After another wash step, plates were developed using 100 μL TMB substrate solution (KPL) and then quenched with KPL stop solution. These quenched plates were read at 450 nm on a Molecular Devices spectrophotomer plate reader. For IC50 generation, compounds were added prior to the enzyme initiation. […]

Sequence of Flk-1 (P35918 20-1345): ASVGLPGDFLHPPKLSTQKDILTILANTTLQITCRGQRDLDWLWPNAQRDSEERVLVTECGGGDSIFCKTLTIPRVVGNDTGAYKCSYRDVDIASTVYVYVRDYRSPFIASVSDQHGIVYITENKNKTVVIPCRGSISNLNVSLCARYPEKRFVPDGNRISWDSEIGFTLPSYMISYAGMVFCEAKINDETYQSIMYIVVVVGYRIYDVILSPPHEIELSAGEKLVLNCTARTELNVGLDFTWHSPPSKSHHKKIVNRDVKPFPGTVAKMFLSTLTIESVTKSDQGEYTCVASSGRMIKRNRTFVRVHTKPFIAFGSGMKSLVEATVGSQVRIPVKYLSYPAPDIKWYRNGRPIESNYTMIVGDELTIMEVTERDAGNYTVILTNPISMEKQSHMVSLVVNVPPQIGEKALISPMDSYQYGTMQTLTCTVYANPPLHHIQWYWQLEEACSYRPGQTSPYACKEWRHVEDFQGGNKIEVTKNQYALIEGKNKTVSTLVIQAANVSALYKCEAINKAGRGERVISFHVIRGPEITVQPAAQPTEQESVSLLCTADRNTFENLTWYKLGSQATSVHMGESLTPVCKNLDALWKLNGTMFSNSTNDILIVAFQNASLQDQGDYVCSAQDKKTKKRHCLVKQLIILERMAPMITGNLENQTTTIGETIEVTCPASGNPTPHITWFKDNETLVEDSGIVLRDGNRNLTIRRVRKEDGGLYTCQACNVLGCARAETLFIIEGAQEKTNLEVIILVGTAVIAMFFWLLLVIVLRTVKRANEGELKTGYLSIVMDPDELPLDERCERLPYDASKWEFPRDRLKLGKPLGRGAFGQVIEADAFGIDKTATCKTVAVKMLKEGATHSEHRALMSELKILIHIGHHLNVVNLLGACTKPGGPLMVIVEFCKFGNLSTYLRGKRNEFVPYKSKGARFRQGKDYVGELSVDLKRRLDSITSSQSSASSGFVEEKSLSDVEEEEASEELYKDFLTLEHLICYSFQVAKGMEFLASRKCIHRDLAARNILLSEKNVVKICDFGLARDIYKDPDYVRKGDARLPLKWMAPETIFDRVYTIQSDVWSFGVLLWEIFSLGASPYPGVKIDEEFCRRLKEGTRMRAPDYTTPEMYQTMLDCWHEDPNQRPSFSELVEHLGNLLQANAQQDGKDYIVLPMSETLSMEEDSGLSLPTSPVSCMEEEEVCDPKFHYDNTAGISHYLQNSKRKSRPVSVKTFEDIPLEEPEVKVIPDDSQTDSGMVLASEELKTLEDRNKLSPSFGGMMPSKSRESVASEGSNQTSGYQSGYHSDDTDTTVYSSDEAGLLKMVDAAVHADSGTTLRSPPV

IC50 [2] | Structure (SMILES) | neovascularization of the joint [1]
– | CO[C@@H]1[C@H](OC(=O)NC(=O)CCl)CC[C@]2(CO2)[C@H]1[C@@]1(C)O[C@@H]1CC=C(C)C [AGM-170] | prevent neovascularization of the joint
< 1 µM | Cc1ccc(-n2nc(C(C)(C)C)cc2NC(=O)Nc2ccc(OCCN3CCOCC3)c3ccccc23)cc1 [{[3-(tert-butyl)-1-(4-methylphenyl)pyrazol-5-yl]amino}-N-[4-(2-morpholin-4-ylethoxy)naphthyl]carboxamide] | –
